Assay results from patent publication US20250230193A1, “CYCLIC COMPOUND HAVING SELECTIVE KRAS INHIBITORY EFFECT ON HRAS AND NRAS” (CHUGAI SEIYAKU KABUSHIKI KAISHA, priority 2022, published 2025).

Columns and labels:
[1] = target: GDP-bound HRAS wild-type protein (Homo sapiens, UniProt P01112); assay: Binding to HRAS by surface plasmon resonance (SPR), Single Cycle Kinetics; details: KD ratio, GDP-bound HRAS wild-type vs GDP-bound KRAS wild-type, SPR
[2] = target: GDP-bound NRAS wild-type protein (Homo sapiens, UniProt P01111); assay: Binding to NRAS by surface plasmon resonance (SPR), Single Cycle Kinetics; details: KD ratio, GDP-bound NRAS wild-type vs GDP-bound KRAS wild-type, SPR
Chain of GDP-bound NRAS wild-type protein (P01111 whole entry): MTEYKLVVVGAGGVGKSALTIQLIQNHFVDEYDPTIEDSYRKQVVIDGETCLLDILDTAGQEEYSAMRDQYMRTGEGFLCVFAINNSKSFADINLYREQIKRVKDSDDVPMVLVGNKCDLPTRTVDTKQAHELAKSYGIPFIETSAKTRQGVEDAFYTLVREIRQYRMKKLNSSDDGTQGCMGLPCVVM

Chain of GDP-bound HRAS wild-type protein (P01112 whole entry): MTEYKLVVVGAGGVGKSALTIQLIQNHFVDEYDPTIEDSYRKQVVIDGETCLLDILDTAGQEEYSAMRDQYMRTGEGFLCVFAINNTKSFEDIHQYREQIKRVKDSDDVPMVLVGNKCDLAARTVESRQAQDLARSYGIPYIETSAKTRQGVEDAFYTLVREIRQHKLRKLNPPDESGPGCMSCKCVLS

Structure (SMILES)	HRAS/KRAS (ratio of KD value with respect to HRAS to KD value with respect to KRAS) [1]	NRAS/KRAS (ratio of KD value with respect to NRAS to KD value with respect to KRAS) [2]
CCO[C@@H]1C[C@H]2C(=O)NC3(CCC3)C(=O)N(C)[C@@H](C3CCCC3)C(=O)N(C)[C@H](C(=O)N(C)C)CC(=O)N(C)[C@@H](CC)C(=O)N[C@@H]([C@@H](C)CC)C(=O)N(C)CC(=O)N(C)[C@H]3CCCCCN(C3=O)[C@@H](Cc3ccc(C(F)(F)F)cc3)C(=O)N(C)CC(=O)N[C@@H](CCc3ccc4sccc4c3)C(=O)N2C1 [PP0892]	B (a compound having 3 or more and less than 10 is denoted as B)	B (a compound having 3 or more and less than 10 is denoted as B)
CCCN1C(=O)CN(C)C(=O)CN(C)C(=O)[C@H]([C@@H](C)CC)NC(=O)[C@@H]2CCCCCOc3ccc(cc3)C[C@H]1C(=O)N(C)CC(=O)N[C@@H](CCc1cc(F)c(C(F)(F)F)c(F)c1)C(=O)N1C[C@H](OCC)C[C@H]1C(=O)NC1(CCCC1)C(=O)N(C)[C@@H](C1CCCC1)C(=O)N(C)[C@H](C(=O)N(C)C)CC(=O)N2C [PP0895]	C (A compound having a KD ratio of 0.1 or more and less than 3 is denoted as C)	C (A compound having a KD ratio of 0.1 or more and less than 3 is denoted as C)
CCCN1C(=O)CN(C)C(=O)CN(C)C(=O)[C@H]([C@@H](C)CC)NC(=O)[C@@H]2CCCCCCOc3ccc(cc3)C[C@H]1C(=O)N(C)CC(=O)N[C@@H](CCc1cc(F)c(C(F)(F)F)c(F)c1)C(=O)N1C[C@H](OCC)C[C@H]1C(=O)NC1(CCCC1)C(=O)N(C)[C@@H](C1CCCC1)C(=O)N(C)[C@H](C(=O)N(C)C)CC(=O)N2C [PP0896]	C (A compound having a KD ratio of 0.1 or more and less than 3 is denoted as C)	C (A compound having a KD ratio of 0.1 or more and less than 3 is denoted as C)
CCO[C@@H]1C[C@H]2C(=O)NC3(CCC3)C(=O)N(C)[C@@H](C3CCCC3)C(=O)N(C)[C@H](C(=O)N(C)C)CC(=O)N(C)[C@@H](CC)C(=O)N[C@@H]([C@@H](C)CC)C(=O)N(C)CC(=O)N(C)[C@H]3CCCCCN(C3=O)[C@@H](Cc3ccc(F)c(F)c3)C(=O)N(C)CC(=O)N[C@@H](CCc3cc(F)c(C(F)(F)F)c(F)c3)C(=O)N2C1 [PP0907]	B (a compound having 3 or more and less than 10 is denoted as B)	B (a compound having 3 or more and less than 10 is denoted as B)
CCO[C@@H]1C[C@H]2C(=O)NC3(CCC3)C(=O)N(C)[C@@H](C3CCCC3)C(=O)N(C)[C@H](C(=O)N(C)C)CC(=O)N(C)[C@@H](CC)C(=O)N[C@@H]([C@@H](C)CC)C(=O)N(C)CC(=O)N(C)[C@H]3CCCCCN(C3=O)[C@@H](Cc3ccc(F)cc3Cl)C(=O)N(C)CC(=O)N[C@@H](CCc3cc(F)c(C(F)(F)F)c(F)c3)C(=O)N2C1 [PP0908]	B (a compound having 3 or more and less than 10 is denoted as B)	B (a compound having 3 or more and less than 10 is denoted as B)
CCO[C@@H]1C[C@H]2C(=O)NC3(CCC3)C(=O)N(C)[C@@H](C3CCCC3)C(=O)N(C)[C@H](C(=O)N(C)C)CC(=O)N(C)[C@@H](CC)C(=O)N[C@@H]([C@@H](C)CC)C(=O)N(C)CC(=O)N(C)[C@H]3CCCCCN(C3=O)[C@@H](Cc3ccc(F)c(Cl)c3)C(=O)N(C)CC(=O)N[C@@H](CCc3cc(F)c(C(F)(F)F)c(F)c3)C(=O)N2C1 [PP0909]	B (a compound having 3 or more and less than 10 is denoted as B)	B (a compound having 3 or more and less than 10 is denoted as B)
CCO[C@@H]1C[C@H]2C(=O)NC3(CCC3)C(=O)N(C)[C@@H](C3CCCC3)C(=O)N(C)[C@H](C(=O)N(C)C)CC(=O)N(C)[C@@H](CC)C(=O)N[C@@H]([C@@H](C)CC)C(=O)N(C)CC(=O)N(C)[C@H]3CCCCCN(C3=O)[C@@H](Cc3ccc4ccsc4c3)C(=O)N(C)CC(=O)N[C@@H](CCc3cc(F)c(C(F)(F)F)c(F)c3)C(=O)N2C1 [PP0910]	B (a compound having 3 or more and less than 10 is denoted as B)	B (a compound having 3 or more and less than 10 is denoted as B)
CCO[C@@H]1C[C@H]2C(=O)NC3(CCC3)C(=O)N(C)[C@@H](C3CCCC3)C(=O)N(C)[C@H](C(=O)N(C)C)CC(=O)N(C)[C@@H](CC)C(=O)N[C@@H]([C@@H](C)CC)C(=O)N(C)CC(=O)N(C)[C@H]3CCCCCN(C3=O)[C@@H](Cc3ccc(F)cc3C)C(=O)N(C)CC(=O)N[C@@H](CCc3cc(F)c(C(F)(F)F)c(F)c3)C(=O)N2C1 [PP0911]	B (a compound having 3 or more and less than 10 is denoted as B)	B (a compound having 3 or more and less than 10 is denoted as B)
CCO[C@@H]1C[C@H]2C(=O)NC3(CCC3)C(=O)N(C)[C@@H](C3CCCC3)C(=O)N(C)[C@H](C(=O)N(C)C)CC(=O)N(C)[C@@H](CC)C(=O)N[C@@H]([C@@H](C)CC)C(=O)N(C)CC(=O)N(C)[C@H]3CCCCCN(C3=O)[C@@H](Cc3ccc(F)c(C)c3)C(=O)N(C)CC(=O)N[C@@H](CCc3cc(F)c(C(F)(F)F)c(F)c3)C(=O)N2C1 [PP0912]	B (a compound having 3 or more and less than 10 is denoted as B)	B (a compound having 3 or more and less than 10 is denoted as B)
CCO[C@@H]1C[C@H]2C(=O)NC3(CCC3)C(=O)N(C)[C@@H](C3CCCC3)C(=O)N(C)[C@H](C(=O)N(C)C)CC(=O)N(C)[C@@H](CC)C(=O)N[C@@H]([C@@H](C)CC)C(=O)N(C)CC(=O)N(C)[C@H]3CCCCCN(C3=O)[C@@H](Cc3nccs3)C(=O)N(C)CC(=O)N[C@@H](CCc3cc(F)c(C(F)(F)F)c(F)c3)C(=O)N2C1 [PP0913]	B (a compound having 3 or more and less than 10 is denoted as B)	B (a compound having 3 or more and less than 10 is denoted as B)
CCO[C@@H]1C[C@H]2C(=O)NC3(CCC3)C(=O)N(C)[C@@H](C3CCCC3)C(=O)N(C)[C@H](C(=O)N(C)C)CC(=O)N(C)[C@@H](CC)C(=O)N[C@@H]([C@@H](C)CC)C(=O)N(C)CC(=O)N(C)[C@H]3CCCCCN(C3=O)[C@@H](Cc3ccc(F)cc3OC)C(=O)N(C)CC(=O)N[C@@H](CCc3cc(F)c(C(F)(F)F)c(F)c3)C(=O)N2C1 [PP0914]	B (a compound having 3 or more and less than 10 is denoted as B)	B (a compound having 3 or more and less than 10 is denoted as B)
CCO[C@@H]1C[C@H]2C(=O)NC3(CCC3)C(=O)N(C)[C@@H](C3CCCC3)C(=O)N(C)[C@H](C(=O)N(C)C)CC(=O)N(C)[C@@H](CC)C(=O)N[C@@H]([C@@H](C)CC)C(=O)N(C)CC(=O)N(C)[C@H]3CCCCCN(C3=O)[C@@H](Cc3ccc(F)c(OC)c3)C(=O)N(C)CC(=O)N[C@@H](CCc3cc(F)c(C(F)(F)F)c(F)c3)C(=O)N2C1 [PP0915]	B (a compound having 3 or more and less than 10 is denoted as B)	B (a compound having 3 or more and less than 10 is denoted as B)
